# Like-named read-outs stand apart in the source and are kept apart here. Marks after values point to notes of the source that are not given here.
Structure (SMILES),Log P (pH 2.7),Log P (pH 7.5)
CC(NC(=C(C#N)C(=O)N1CCOCC1)c1cn(C)nc1C(F)F)c1ccccn1 (stereo not drawn) [Compound 1328],1.63^[a],–
CCNC(=O)C(C#N)=C(NC(C)c1ccccn1)c1ccnc(Cl)c1F (stereo not drawn) [Compound 1329],2.5^[a],–
CCOC(=O)C(C#N)=C(NC(C)c1nccs1)c1ccnc(Br)c1F (stereo not drawn) [Compound 1330],3^[a],–
CCOC(=O)C(C#N)=C(NC(C)c1nccs1)c1ccnc(SC)c1Cl (stereo not drawn) [Compound 1331],3.53^[a],–
CCOC(=O)C(C#N)=C(NC(CC)COC)c1cn(C)nc1C(F)F (stereo not drawn) [Compound 1332],2.71^[a],–
CCOC(=O)C(C#N)=C(NC1CCCCC1)c1cn(C)nc1C(F)F [Compound 1333],3.29^[a],–
CCOC(=O)C(C#N)=C(NC(CC)CN(C)C)c1cn(C)nc1C(F)F (stereo not drawn) [Compound 1334],1.22^[a],–
CCCC(CO)NC(=C(C#N)C(=O)OCC)c1cn(C)nc1C(F)F (stereo not drawn) [Compound 1335],2.28^[a],–
CC#CC1(NC(=C(C#N)C(=O)OCC)c2cn(C)nc2C(F)F)CCCCC1 [Compound 1336],3.71^[a],–
CCOC(=O)C(C#N)=C(NC1CCC(OCC)CC1)c1cn(C)nc1C(F)F (stereo not drawn) [Compound 1337],3.08^[a],–
CCOC(=O)C(C#N)=C(NC(CC)CC)c1cn(C)nc1C(F)F [Compound 1338],3.15^[a],–
CCOC(=O)C(C#N)=C(NC1COC1)c1cn(C)nc1C(F)F [Compound 1339],1.79^[a],–
CCOC(=O)C(C#N)=C(NCC1(C)CCCO1)c1cn(C)nc1C(F)F (stereo not drawn) [Compound 1340],2.54^[a],–
CCOC(=O)C(C#N)=C(NC(COC)COC)c1cn(C)nc1C(F)F [Compound 1341],2.42^[a],–
CCOC(=O)C(C#N)=C(NC(CC)CC#N)c1cn(C)nc1C(F)F (stereo not drawn) [Compound 1342],2.39^[a],–
CCCC(CC)NC(=C(C#N)C(=O)OCC)c1cn(C)nc1C(F)F (stereo not drawn) [Compound 1343],3.51^[a],–
CCOC(=O)C(C#N)=C(NC(C)CC(F)(F)F)c1cn(C)nc1C(F)F (stereo not drawn) [Compound 1346],2.77^[a],–
CCOC(=O)C(C#N)=C(NCCOc1ccccc1Br)c1cn(C)nc1C(F)F [Compound 1347],3.35^[a],–
CCOC(=O)C(C#N)=C(NCC(C)c1ccccc1Br)c1cn(C)nc1C(F)F (stereo not drawn) [Compound 1348],3.69^[a],–
CCOC(=O)C(C#N)=C(NC(C(=O)OCC)c1ccccc1)c1cn(C)nc1C(F)F (stereo not drawn) [Compound 1349],3.25^[a],–
CCOCC(NC(=C(C#N)C(=O)OCC)c1cn(C)nc1C(F)F)C(C)C (stereo not drawn) [Compound 1350],3.39^[a],–

Structure (SMILES),Log P (pH 2.7),Log P (pH 7.5)
CCOCC(CC)NC(=C(C#N)C(=O)OCC)c1cn(C)nc1C(F)F (stereo not drawn) [Compound 1351],3.08^[a],–
CCOC(=O)C(C#N)=C(NC1CCCC1OC)c1cn(C)nc1C(F)F (stereo not drawn) [Compound 1352],2.78^[a],–
CCOC(=O)C(C#N)=C(NC1CCCC1OCC)c1cn(C)nc1C(F)F (stereo not drawn) [Compound 1353],3.21^[a],–
CCCC(COCC)NC(=C(C#N)C(=O)OCC)c1cn(C)nc1C(F)F (stereo not drawn) [Compound 1354],3.44^[a],–
CCOC(=O)C(C#N)=C(NC1CSC1)c1cn(C)nc1C(F)F [Compound 1355],2.54^[a],–
CCOC(=O)C(C#N)=C(NC1COC1)c1cccnc1Cl [Compound 1356],1.84^[a],–
CCOC(=O)C(C#N)=C(NCC1(C)CCCO1)c1cccnc1Cl (stereo not drawn) [Compound 1357],2.7^[a],–
CCOC(=O)C(C#N)=C(NC(COC)COC)c1cccnc1Cl [Compound 1358],2.56^[a],–
CCOC(=O)C(C#N)=C(NC(CC)CC#N)c1cccnc1Cl (stereo not drawn) [Compound 1359],2.51^[a],–
CCOC(=O)C(C#N)=C(NC1(c2ccc(Cl)cc2)CC1)c1cn(C)nc1C(F)F [Compound 1360],3.58^[a],–
CCOC(=O)C(C#N)=C(NC1(c2cccc(Cl)c2)CC1)c1cn(C)nc1C(F)F [Compound 1361],3.51^[a],–
CCOC(=O)C(C#N)=C(NC1(c2ccccc2Cl)CC1)c1cn(C)nc1C(F)F [Compound 1362],3.35^[a],–
CCOC(=O)C(C#N)=C(NC(c1ccc(Cl)cc1)C1CC1)c1cn(C)nc1C(F)F (stereo not drawn) [Compound 1363],3.89^[a],–
CCOC(=O)C(C#N)=C(NC1(c2ccccc2)CC1)c1cn(C)nc1C(F)F [Compound 1364],3.21^[a],–
CCOC(=O)C(C#N)=C(NC(C)c1ccccc1C)c1cn(C)nc1C(F)F (stereo not drawn) [Compound 1365],3.46^[a],–
CCOC(=O)C(C#N)=C(NC(C)CC(F)(F)F)c1cccnc1Cl (stereo not drawn) [Compound 1366],2.92^[a],–
CCOC(=O)C(C#N)=C(NC(CC)COC)c1cccnc1Cl (stereo not drawn) [Compound 1367],2.92^[a],–
CCCC(CO)NC(=C(C#N)C(=O)OCC)c1cccnc1Cl (stereo not drawn) [Compound 1368],2.45^[a],–
CCOC(=O)C(C#N)=C(NC1CCS(=O)(=O)C1)c1cccnc1Cl (stereo not drawn) [Compound 1369],1.84^[a],–
CCOC(=O)C(C#N)=C(NC1CCC(OCC)CC1)c1cccnc1Cl (stereo not drawn) [Compound 1370],3.31^[a],–
CCOC(=O)C(C#N)=C(NC(CC)CC)c1cccnc1Cl [Compound 1371],3.35^[a],–

Structure (SMILES),Log P (pH 2.7),Log P (pH 7.5)
CCOCC(CC)NC(=C(C#N)C(=O)OCC)c1cccnc1Cl (stereo not drawn) [Compound 1372],3.31^[a],–
CCOC(=O)C(C#N)=C(NC1CCCC1OCC)c1cccnc1Cl (stereo not drawn) [Compound 1373],3.44^[a],–
CCOC(=O)C(C#N)=C(NC1CSC1)c1cccnc1Cl [Compound 1374],2.64^[a],–
CCCC(COC)NC(=C(C#N)C(=O)OCC)c1cccnc1Cl (stereo not drawn) [Compound 1375],3.31^[a],–
CCOCC(COCC)NC(=C(C#N)C(=O)OCC)c1cccnc1Cl [Compound 1376],3.33^[a],–
CCOC(=O)C(C#N)=C(NCCOc1ccccc1Br)c1cccnc1Cl [Compound 1377],3.53^[a],–
CCOC(=O)C(C#N)=C(NCC(C)c1ccccc1Br)c1cccnc1Cl (stereo not drawn) [Compound 1378],3.94^[a],–
CCOC(=O)C(C#N)=C(NC(C(=O)OCC)c1ccccc1)c1cccnc1Cl (stereo not drawn) [Compound 1379],3.39^[a],–
CCOC(=O)C(C#N)=C(NC(C)c1ccccn1)c1ccc(C)nc1Cl (stereo not drawn) [Compound 1380],–,2.67
CCOC(=O)C(C#N)=C(NC(C)c1ccccn1)c1ccc(Cl)nc1Cl (stereo not drawn) [Compound 1381],–,3.06
CCCc1nccc(C(NC(C)c2nccs2)=C(C#N)C(=O)OCC)c1Cl (stereo not drawn) [Compound 1382],3.27^[a],–
CCOC(=O)C(C#N)=C(NC(C)c1nccs1)c1ccnc(CC)c1Cl (stereo not drawn) [Compound 1383],2.92^[a],–
CCOC(=O)C(C#N)=C(NC(C)c1nccs1)c1ccnc(CC(C)C)c1Cl (stereo not drawn) [Compound 1384],3.64^[a],–
CCOC(=O)C(C#N)=C(NC(C)c1nccs1)c1ccnc(-c2ccccc2)c1Cl (stereo not drawn) [Compound 1385],3.31^[a],–
CCOC(=O)C(C#N)=C(NC(C)C(=O)NC)c1ccnc(Cl)c1Cl (stereo not drawn) [Compound 1387],2.1^[a],–
CCOC(=O)C(C#N)=C(Nc1ccccc1SC)c1ccnc(Cl)c1Cl [Compound 1388],3.89^[a],–
CCOC(=O)C(C#N)=C(NC(C)COC)c1ccnc(Cl)c1Cl (stereo not drawn) [Compound 1392],3.06^[a],–
CCOC(=O)C(C#N)=C(NC(C)C(C)C)c1ccnc(CC)c1Cl (stereo not drawn) [Compound 1399],4.02^[a],–
CCCc1nccc(C(NC(C)C(C)C)=C(C#N)C(=O)OCC)c1Cl (stereo not drawn) [Compound 1400],4.41^[a],–
CCOC(=O)C(C#N)=C(NC(C)C(C)C)c1ccnc(SC)c1Cl (stereo not drawn) [Compound 1401],4.44^[a],–
CCOC(=O)C(C#N)=C(NC(C)C(C)C)c1ccnc(CC(C)C)c1Cl (stereo not drawn) [Compound 1402],4.81^[a],–

Structure (SMILES),Log P (pH 2.7),Log P (pH 7.5)
CCOC(=O)C(C#N)=C(NC(C)C(C)C)c1ccnc(-c2ccccc2)c1Cl (stereo not drawn) [Compound 1403],4.34^[a],–
CCOC(=O)C(C#N)=C(NC(C)C(C)C)c1ccnc(Cl)c1Br (stereo not drawn) [Compound 1405],3.92^[a],–
CCNC(=O)C(C#N)=C(NC(C)C(C)C)c1ccnc(Cl)c1Br (stereo not drawn) [Compound 1408],3.53^[a],–
CCOC(=O)C(C#N)=C(NC(C)C(C)C)c1ccnc(Br)c1Br (stereo not drawn) [Compound 1410],3.96^[a],–
CCOC(=O)C(C#N)=C(NCc1ncccc1Cl)c1cccnc1Cl [Compound 1412],2.78^[a],–
CCOC(=O)C(C#N)=C(NCc1ncccc1Cl)c1cccnc1Cl [Compound 1413],2.77^[a],–
CCOC(=O)C(C#N)=C(NC(C)c1nc(C2CC2)cs1)c1cccnc1Cl (stereo not drawn) [Compound 1416],3.37^[a],–
CCOC(=O)C(C#N)=C(NC(CC(C)C)C(F)(F)F)c1cn(C)nc1C(F)F (stereo not drawn) [Compound 1417],3.8^[a],–
CCOC(=O)C(C#N)=C(NC(C)(C)C)c1cn(C)nc1C(F)F [Compound 1418],2.66^[a],–
CCOC(=O)C(C#N)=C(NC(C)C)c1cn(C)nc1C(F)F [Compound 1419],2.53^[a],–
CCOC(=O)C(C#N)=C(NC1CCS(=O)(=O)C1)c1cn(C)nc1C(F)F (stereo not drawn) [Compound 1420],1.79^[a],–
CCOC(=O)C(C#N)=C(NC(C)(C)CC)c1cn(C)nc1C(F)F [Compound 1421],2.96^[a],–
CCOC(=O)C(C#N)=C(NC(C#N)C(C)C)c1cn(C)nc1C(F)F (stereo not drawn) [Compound 1422],2.76^[a],–
CCOC(=O)C(C#N)=C(NCC1(C)COC1)c1cn(C)nc1C(F)F [Compound 1423],2.04^[a],–
CCCC(NC(=C(C#N)C(=O)OCC)c1cn(C)nc1C(F)F)C(F)(F)F (stereo not drawn) [Compound 1424],3.53^[a],–
CCOC(=O)C(C#N)=C(NC(C)(C)CC)c1cccnc1Cl [Compound 1425],3.23^[a],–
CCOC(=O)C(C#N)=C(Nc1cc(C(F)(F)F)ccc1SC)c1cn(C)nc1C(F)F [Compound 1426],3.67^[a],–
CCOC(=O)C(C#N)=C(Nc1ccccc1C(O)(C(F)(F)F)C(F)(F)F)c1cn(C)nc1C(F)F [Compound 1427],3.25^[a],–
CCOC(=O)C(C#N)=C(NC(CC(F)(F)F)c1ccccc1)c1cn(C)nc1C(F)F (stereo not drawn) [Compound 1428],3.37^[a],–
CCOC(=O)C(C#N)=C(NCC1(C)COC1)c1cccnc1Cl [Compound 1429],2.11^[a],–
CC#CC1(NC(=C(C#N)C(=O)OCC)c2cccnc2Cl)CCCCC1 [Compound 1430],4.06^[a],–
